Values of other authors, collected in patent US7098029B1, “Product and method for control of obesity” (Metabolic Pharmaceuticals Limited, priority 1999, dated 2006).

Tested on: C57B1/6J (Ob/Ob) mouse
Details: administration by injection; cited from earlier work

Substance: hGH 177–191: synthetic peptide corresponding to amino acid residues 177–191 of the human growth hormone sequence (LRIVQCRSVEGSCGF)
- adipose tissue mass: reduce body weight gain and adipose tissue mass
- body weight gain: reduce body weight gain
